Data taken from US9346786B2, “Pyrrolidine compounds” (Hoffmann-La Roche Inc., priority 2009, dated 2016).
pKi: −log10 of the molar value.

These molecules were tested against recombinant human NK3 receptor (Homo sapiens (Human), UniProt P29371) (assay: biochemical). Settings: not given.
Sequence of recombinant human NK3 receptor (P29371 whole entry): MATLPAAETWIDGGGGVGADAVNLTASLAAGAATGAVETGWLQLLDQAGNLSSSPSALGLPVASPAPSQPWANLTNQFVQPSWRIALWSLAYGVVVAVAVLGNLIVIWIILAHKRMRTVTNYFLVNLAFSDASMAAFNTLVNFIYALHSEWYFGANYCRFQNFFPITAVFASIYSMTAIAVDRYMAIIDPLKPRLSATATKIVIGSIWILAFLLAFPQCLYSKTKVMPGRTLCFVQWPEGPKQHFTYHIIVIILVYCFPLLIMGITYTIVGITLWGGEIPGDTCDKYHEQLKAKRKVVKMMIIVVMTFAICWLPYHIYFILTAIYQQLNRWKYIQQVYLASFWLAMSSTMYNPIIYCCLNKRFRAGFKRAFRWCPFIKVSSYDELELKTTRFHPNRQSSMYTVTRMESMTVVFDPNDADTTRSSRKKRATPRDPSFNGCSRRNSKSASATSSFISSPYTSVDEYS
Assay type: binding
Experimental: [^3H]SR142801 Competition Binding Assay
hNK3 receptor binding experiment were performed using [^3H]SR142801 (Catalog No. TRK1035, specific activity: 74.0 Ci/mmol, Amersham, GE Healthcare UK limited, Buckinghamshire, UK) and membrane isolated from HEK293 cells transiently expressing recombinant human NK3 receptor. After thawing, the membrane homogenates were centrifuged at 48,000×g for […] at 4° C., the pellets were resuspended in the 50 mM Tris-HCl, 4 mM MnCl2, 1 μM phosphoramidon, 0.1% BSA binding buffer at pH 7.4 to a final assay concentration of 5 μg protein/well. For inhibition experiments, membranes were incubated with [^3H]SR142801 at a concentration equal to KD value of radioligand and 10 concentrations of the inhibitory compound (0.0003-10 μM) (in a total reaction volume of 500 μl) for 75 min at room temperature (RT). At the end of the incubation, membranes were filtered onto unitfilter (96-well white microplate with bonded GF/C filter preincubated 1 h in 0.3% PEI+0.3% BSA, Packard BioScience, Meriden, Conn.) with a Filtermate 196 harvester (Packard BioScience) and washed 4 times with ice-cold 50 mM Tris-HCl, pH 7.4 buffer. Nonspecific binding was measured in the presence of 10 μM SB222200 for both radioligands. The radioactivity on the filter was counted (5 min) on a Packard Top-count microplate scintillation counter with quenching correction after addition of 45 μl of microscint 40 (Canberra Packard S.A., Zürich, Switzerland) and shaking for 1 h. Inhibition curves were fitted according to the Hill equation: y=100/(1+(x/IC50)^nH), where nH=slope factor using Excel-fit 4 software (Microsoft). IC50 values were derived from the inhibition curve and the affinity constant (Ki) values were calculated using the Cheng-Prussoff equation Ki=IC50/(1+[L]/KD) where [L] is the concentration of radioligand and KD is its dissociation constant at the receptor, derived from the saturation isotherm. All experiments were performed in duplicate and the mean±standard error (SEM) of the individual Ki values was calculated.
CCN(C(=O)Oc1ccc(F)cc1)[C@@H]1CN(C(=O)C2CCN(C(=O)C3(C)CC3)CC2)C[C@H]1c1ccc(Cl)c(Cl)c1 (racemic) [Example 1, rac-{(3S,4R)-4-(3,4-Dichloro-phenyl)-1-[1-(1-methyl-cyclopropanecarbonyl)-piperidine-4-carbonyl]-pyrrolidin-3-yl}-ethyl-carbamic acid 4-fluoro-phenyl ester] was tested, and the pKi was 9.00.

Same assay, conditions: [3H]SR142801, membranes of HEK293 cells transiently expressing recombinant human NK3 receptor; read-out: Data Ki (hNK-3 receptor affinity)
CCN(C(=O)Oc1ccc(F)cc1)[C@@H]1CN(C(=O)C2CCN(C(=O)[C@@H]3CC(=O)N3)CC2)C[C@H]1c1ccc(Cl)cc1 [Example 121, {(3S,4R)-4-(4-Chloro-phenyl)-1-[1-((S)-4-oxo-azetidine-2-carbonyl)-piperidine-4-carbonyl]-pyrrolidin-3-yl}-ethyl-carbamic acid 4-fluoro-phenyl ester] was tested, and the pKi was 7.77. With CCN(C(=O)Oc1ccc(F)cc1)[C@@H]1CN(C(=O)C2CCN(C(=O)C3(C)CC3)CC2)C[C@H]1c1ccc(F)c(F)c1 [Example 52, {(3S,4R)-4-(3,4-Difluoro-phenyl)-1-[1-(1-methyl-cyclopropanecarbonyl)-piperidine-4-carbonyl]-pyrrolidin-3-yl}-ethyl-carbamic acid 4-fluoro-phenyl ester] the pKi was 7.82. CCN(C(=O)Oc1ccc(F)cc1)[C@@H]1CN(C(=O)C2CCN(C(=O)c3ccc(C#N)nc3)CC2)C[C@H]1c1ccc(Cl)c(F)c1 [Example 79, {(3S,4R)-4-(4-Chloro-3-fluoro-phenyl)-1-[1-(6-cyano-pyridine-3-carbonyl)-piperidine-4-carbonyl]-pyrrolidin-3-yl}-ethyl-carbamic acid 4-fluoro-phenyl ester] was tested, and the pKi was 8.10. With CCN(C(=O)Oc1ccc(F)cc1)[C@H]1CN(C(=O)C2CCN(c3ccc(C#N)cn3)CC2)C[C@@H]1c1ccc(Cl)cc1 [Example 22, [(3R,4S)-4-(4-Chloro-phenyl)-1-(5′-cyano-3,4,5,6-tetrahydro-2H-[1,2′]bipyridinyl-4-carbonyl)-pyrrolidin-3-yl]-ethyl-carbamic acid 4-fluoro-phenyl ester] the pKi was 7.60. CCN(C(=O)Oc1ccc(F)cc1)[C@@H]1CN(C(=O)C2CCN(c3ccc(C(N)=O)cn3)CC2)C[C@H]1c1ccc(Cl)cc1 [Example 111, [(3S,4R)-1-(5′-Carbamoyl-3,4,5,6-tetrahydro-2H-[1,2′]bipyridinyl-4-carbonyl)-4-(4-chloro-phenyl)-pyrrolidin-3-yl]-ethyl-carbamic acid 4-fluoro-phenyl ester] was tested, and the pKi was 8.13. In the case of CC(C)N(C(=O)Oc1ccc(F)cc1)[C@@H]1CN(C(=O)C2CCN(c3ccc(C#N)cn3)CC2)C[C@H]1c1ccc(Cl)cc1 [Example 23, [(3S,4R)-4-(4-Chloro-phenyl)-1-(5′-cyano-3,4,5,6-tetrahydro-2H-[1,2′]bipyridinyl-4-carbonyl)-pyrrolidin-3-yl]-isopropyl-carbamic acid 4-fluoro-phenyl ester], the pKi was 7.68. With CCN(C(=O)Oc1ccc(F)cc1)[C@@H]1CN(C(=O)C2CCN(c3cnc(C#N)cn3)CC2)C[C@H]1c1ccc(Cl)c(F)c1 [Example 61, {(3S,4R)-4-(4-Chloro-3-fluoro-phenyl)-1-[1-(5-cyano-pyrazin-2-yl)-piperidine-4-carbonyl]-pyrrolidin-3-yl}-ethyl-carbamic acid 4-fluoro-phenyl ester] the pKi was 9.10. For CCN(C(=O)Oc1ccc(F)cc1)[C@@H]1CN(C(=O)C2CCN(C(=O)C3CCC(=O)NC3)CC2)C[C@H]1c1ccc(F)c(F)c1 (stereo partly drawn) [Example 107, {(3S,4R)-4-(3,4-Difluoro-phenyl)-1-[1-(6-oxo-piperidine-3-carbonyl)-piperidine-4-carbonyl]-pyrrolidin-3-yl}-ethyl-carbamic acid 4-fluoro-phenyl ester], the pKi was 6.88. In the case of CCN(C(=O)Oc1ccc(F)cc1)[C@@H]1CN(C(=O)C2CCN(C(=O)C3(C#N)CC3)CC2)C[C@H]1c1ccc(Cl)cc1 [Example 94, {(3S,4R)-4-(4-Chloro-phenyl)-1-[1-(1-cyano-cyclopropanecarbonyl)-piperidine-4-carbonyl]-pyrrolidin-3-yl}-ethyl-carbamic acid 4-fluoro-phenyl ester], the pKi was 8.11. With CCN(C(=O)Oc1ccc(F)cc1)[C@@H]1CN(C(=O)C2CCN(C(=O)C3CCOC(C)(C)C3)CC2)C[C@H]1c1ccc(Cl)cc1 (stereo partly drawn) [Example 98, {(3S,4R)-4-(4-Chloro-phenyl)-1-[1-(2,2-dimethyl-tetrahydro-pyran-4-carbonyl)-piperidine-4-carbonyl]-pyrrolidin-3-yl}-ethyl-carbamic acid 4-fluoro-phenyl ester] the pKi was 8.33. Molecule CC(=O)c1ccc(N2CCC(C(=O)N3C[C@@H](N(C(=O)Oc4ccc(F)cc4)C4CC4)[C@H](c4ccc(Cl)cc4)C3)CC2)nc1 [Example 30, [(3S,4R)-1-(5′-Acetyl-3,4,5,6-tetrahydro-2H-[1,2′]bipyridinyl-4-carbonyl)-4-(4-chloro-phenyl)-pyrrolidin-3-yl]-cyclopropyl-carbamic acid 4-fluoro-phenyl ester] has a pKi of 7.46. For CCN(C(=O)Oc1ccc(F)cc1)[C@@H]1CN(C(=O)C2CCN(c3ccc(Cl)cn3)CC2)C[C@H]1c1ccc(Cl)c(F)c1 [Example 41, [(3S,4R)-4-(4-Chloro-3-fluoro-phenyl)-1-(5′-chloro-3,4,5,6-tetrahydro-2H-[1,2′]bipyridinyl-4-carbonyl)-pyrrolidin-3-yl]-ethyl-carbamic acid 4-fluoro-phenyl ester], the pKi was 9.22. Work on CCN(C(=O)Oc1ccc(F)cc1)[C@@H]1CN(C(=O)C2CCN(c3ccc(C)cn3)CC2)C[C@H]1c1ccc(Cl)c(F)c1 [Example 47, [(3S,4R)-4-(4-Chloro-3-fluoro-phenyl)-1-(5′-methyl-3,4,5,6-tetrahydro-2H-[1,2′]bipyridinyl-4-carbonyl)-pyrrolidin-3-yl]-ethyl-carbamic acid 4-fluoro-phenyl ester] yielded a pKi of 8.70.

Same assay, conditions: read-out: Data Ki (hNK-3 receptor affinity)
With CCN(C(=O)Oc1ccc(F)cc1)[C@@H]1CN(C(=O)C2CCN(c3ccc(C(F)(F)F)cn3)CC2)C[C@H]1c1ccc(Cl)cc1 [Example 20, [(3S,4R)-4-(4-Chloro-phenyl)-1-(5′-trifluoromethyl-3,4,5,6-tetrahydro-2H-[1,2′]bipyridinyl-4-carbonyl)-pyrrolidin-3-yl]-ethyl-carbamic acid 4-fluoro-phenyl ester] the pKi was 8.52. CCN(C(=O)Oc1ccc(F)cc1)[C@H]1CN(C(=O)C2CCN(c3cc(C#N)ccn3)CC2)C[C@@H]1c1ccc(Cl)cc1 [Example 9, [(3R,4S)-4-(4-Chloro-phenyl)-1-(4′-cyano-3,4,5,6-tetrahydro-2H-[1,2′]bipyridinyl-4-carbonyl)-pyrrolidin-3-yl]-ethyl-carbamic acid 4-fluoro-phenyl ester] gave a pKi of 6.86. Work on N#Cc1cnc(N2CCC(C(=O)N3C[C@@H](N(C(=O)Oc4ccc(F)cc4)C4CC4)[C@H](c4ccc(Cl)cc4)C3)CC2)cn1 [Example 33, {(3S,4R)-4-(4-Chloro-phenyl)-1-[1-(5-cyano-pyrazin-2-yl)-piperidine-4-carbonyl]-pyrrolidin-3-yl}-cyclopropyl-carbamic acid 4-fluoro-phenyl ester] yielded a pKi of 7.32. For CCN(C(=O)Oc1ccc(F)cc1)[C@@H]1CN(C(=O)C2CCN(C(=O)c3ccc(F)cc3)CC2)C[C@H]1c1ccc(Cl)c(F)c1 [Example 77, {(3S,4R)-4-(4-Chloro-3-fluoro-phenyl)-1-[1-(4-fluoro-benzoyl)-piperidine-4-carbonyl]-pyrrolidin-3-yl}-ethyl-carbamic acid 4-fluoro-phenyl ester], the pKi was 8.40. CCN(C(=O)Oc1ccccc1F)[C@@H]1CN(C(=O)C2CCN(C(=O)c3ccc(C(F)(F)F)cn3)CC2)C[C@H]1c1ccc(Cl)cc1 [Example 86, {(3S,4R)-4-(4-Chloro-phenyl)-1-[1-(5-trifluoromethyl-pyridine-2-carbonyl)-piperidine-4-carbonyl]-pyrrolidin-3-yl}-ethyl-carbamic acid 2-fluoro-phenyl ester] showed a pKi of 7.15. Molecule CCN(C(=O)Oc1ccc(F)cc1)[C@@H]1CN(C(=O)C2CCN(C(=O)C3(C)CC3)CC2)C[C@H]1c1ccc(Cl)c(Cl)c1 [Example 5, {(3S,4R)-4-(3,4-Dichloro-phenyl)-1-[1-(1-methyl-cyclopropanecarbonyl)-piperidine-4-carbonyl]-pyrrolidin-3-yl}-ethyl-carbamic acid 4-fluoro-phenyl ester] has a pKi of 8.70. CCN(C(=O)Oc1ccc(F)cc1)[C@H]1CN(C(=O)C2CCN(c3cnc(C#N)cn3)CC2)C[C@@H]1c1ccc(Cl)cc1 [Example 11, {(3R,4S)-4-(4-Chloro-phenyl)-1-[1-(5-cyano-pyrazin-2-yl)-piperidine-4-carbonyl]-pyrrolidin-3-yl}-ethyl-carbamic acid 4-fluoro-phenyl ester] gave a pKi of 7.44.
